Results reported in patent US10463644B2, “Uses of sesquiterpene lactone compounds and their derivatives in drugs preparation” (ACCENDATECH, priority 2013, dated 2019).
Like-named read-outs stand apart in the source and are kept apart here.

Key:
[1] = system: IL-1β secreted by synoviocyte; test: Content of IL-1β in culture supernatant of synoviocyte of RA model rats given test compound; format: in vivo; conditions: rat RA model, dose 30 mg/kg.2d; normal control 0.16 ± 0.034, NaCl 0.49 ± 0.136
In short: (§1)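 Rat RA model; dosing 30 mg/kg.2d; normal and NaCl control groups. Synoviocyte culture supernatant collected; TNF-α and PGE2 measured by one established method, IL-1β by a separate method.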

[2] = system: normal cells; test: Survival rate of normal cells after test compound is added (flow cytometry, Annexin V-FITC/PI); format: cell-based; conditions: 18 h
In short: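 Ficoll-isolated mononuclear cells from patient specimens (e.g. AML) in serum-free IMDM at 1×10^6/mL were exposed to compound for 18 hours. Cells were stained for stem-cell markers (CD34+CD38+ for AML) plus Annexin V-FITC/PI, and apoptosis was read by flow cytometry within one hour.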

[3] = system: PGE2 secreted by synoviocyte; test: Content of PGE2 in culture supernatant of synoviocyte of RA model rats given test compound; format: in vivo; conditions: rat RA model, dose 30 mg/kg.2d; normal control 8.34 ± 1.29, NaCl 32.44 ± 10.32
In short: as §1

[4] = system: cancer cells; test: Survival rate of cancer cells after test compound is added (flow cytometry, Annexin V-FITC/PI, clinical specimen); format: cell-based, patient; conditions: Homo sapiens, 18 h, read-out: Survival rate (%) All cells (Stem cells and ordinary cells)
In short: (§2)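 Mononuclear cells from fresh or cryopreserved clinical samples, isolated by Ficoll gradient and held in serum-free IMDM (1×10^6/mL), received compound for 18 h. After labelling with marker antibodies (CD34+CD38+ for AML), Annexin V-FITC and PI staining was analysed by flow cytometry.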

[5] = system: cancer stem cells; test: Survival rate of cancer stem cells after test compound is added (flow cytometry, Annexin V-FITC/PI, clinical specimen); format: cell-based, patient; conditions: Homo sapiens, 18 h
In short: as §2

[6] = read-out: Survival rate (%) All cells (Stem cells and ordinary cells)
[7] = read-out: Survival rate (%) Stem cells
[8] = Head and neck squamous cell carcinomas

## C=C1C(=O)O[C@@H]2[C@@H]3[C@@H](CCC34CC4)C3(CC[C@@H]12)CC3 [Compound 26]
[1]
  Content of IL-1β in culture supernatant of synoviocyte (x ± s): 0.42 ± 0.052 ng/mL
[2]; [6]
  viability at 10 µM: 95%
  viability at 20 µM: 94%
[2]; [7]
  viability at 10 µM: 94%
  viability at 20 µM: 93%
[3]
  Content of PGE2 in culture supernatant of synoviocyte (x ± s): 25.61 ± 5.41 ng/mL
[4]; AML
  viability at 10 µM: 93%
  viability at 20 µM: 85%
[4]; Brain glioma
  viability at 10 µM: 88%
  viability at 20 µM: 85%
[4]; Brain tumor
  viability at 10 µM: 89%
  viability at 20 µM: 85%
[4]; Breast cancer
  viability at 10 µM: 89%
  viability at 20 µM: 86%
[4]; CLL
  viability at 10 µM: 93%
  viability at 20 µM: 85%
[4]; CML
  viability at 10 µM: 92%
  viability at 20 µM: 79%
[4]; Children hepatoblastoma
  viability at 10 µM: 93%
  viability at 20 µM: 86%
[4]; Colon adenocarcinoma
  viability at 10 µM: 91%
  viability at 20 µM: 89%
[4]; Colorectal cancer
  viability at 10 µM: 87%
  viability at 20 µM: 81%
[4]; Gastric cancer
  viability at 10 µM: 88%
  viability at 20 µM: 84%
[4]; Gastrointestinal tumor
  viability at 10 µM: 93%
  viability at 20 µM: 88%
[4]; Glioma
  viability at 10 µM: 94%
  viability at 20 µM: 87%
[4]; [8]
  viability at 10 µM: 91%
  viability at 20 µM: 88%
[4]; Laryngeal cancer
  viability at 10 µM: 88%
  viability at 20 µM: 82%
[4]; Liver cancer
  viability at 10 µM: 89%
  viability at 20 µM: 87%
[4]; Lung adenocarcinoma
  viability at 10 µM: 91%
  viability at 20 µM: 87%
[4]; Lung cancer
  viability at 10 µM: 88%
  viability at 20 µM: 84%
[4]; Malignant melanoma
  viability at 10 µM: 88%
  viability at 20 µM: 86%
[4]; Nasopharynx cancer
  viability at 10 µM: 94%
  viability at 20 µM: 81%
[4]; Ovarian cancer
  viability at 10 µM: 91%
  viability at 20 µM: 84%
[4]; Pancreatic cancer
  viability at 10 µM: 90%
  viability at 20 µM: 86%
[4]; Prostate cancer
  viability at 10 µM: 92%
  viability at 20 µM: 89%
[4]; Retinoblastoma
  viability at 10 µM: 91%
  viability at 20 µM: 85%
[4]; Skin cancer
  viability at 10 µM: 94%
  viability at 20 µM: 87%
[5]; AML
  viability at 10 µM: 86%
  viability at 20 µM: 73%
[5]; Brain glioma
  viability at 10 µM: 84%
  viability at 20 µM: 76%
[5]; Brain tumor
  viability at 10 µM: 84%
  viability at 20 µM: 73%
[5]; Breast cancer
  viability at 10 µM: 85%
  viability at 20 µM: 74%
[5]; CLL
  viability at 10 µM: 84%
  viability at 20 µM: 74%
[5]; CML
  viability at 10 µM: 88%
  viability at 20 µM: 76%
[5]; Children hepatoblastoma
  viability at 10 µM: 85%
  viability at 20 µM: 79%
[5]; Colon adenocarcinoma
  viability at 10 µM: 86%
  viability at 20 µM: 81%
[5]; Colorectal cancer
  viability at 10 µM: 79%
  viability at 20 µM: 72%
[5]; Gastric cancer
  viability at 10 µM: 83%
  viability at 20 µM: 77%
[5]; Gastrointestinal tumor
  viability at 10 µM: 87%
  viability at 20 µM: 82%
[5]; Glioma
  viability at 10 µM: 87%
  viability at 20 µM: 76%
[5]; [8]
  viability at 10 µM: 84%
  viability at 20 µM: 78%
[5]; Laryngeal cancer
  viability at 10 µM: 80%
  viability at 20 µM: 75%
[5]; Liver cancer
  viability at 10 µM: 82%
  viability at 20 µM: 79%
[5]; Lung adenocarcinoma
  viability at 10 µM: 85%
  viability at 20 µM: 82%
[5]; Lung cancer
  viability at 10 µM: 82%
  viability at 20 µM: 78%
[5]; Malignant melanoma
  viability at 10 µM: 82%
  viability at 20 µM: 76%
[5]; Nasopharynx cancer
  viability at 10 µM: 85%
  viability at 20 µM: 74%
[5]; Ovarian cancer
  viability at 10 µM: 86%
  viability at 20 µM: 75%
[5]; Pancreatic cancer
  viability at 10 µM: 86%
  viability at 20 µM: 77%
[5]; Prostate cancer
  viability at 10 µM: 86%
  viability at 20 µM: 77%
[5]; Retinoblastoma
  viability at 10 µM: 82%
  viability at 20 µM: 74%
[5]; Skin cancer
  viability at 10 µM: 86%
  viability at 20 µM: 75%
